Data as given in US10633419B2, “Immunomodulators” (BRISTOL-MYERS SQUIBB COMPANY, priority 2014, dated 2020).
Starred links: 1 amine or outer side, 2 acyl side, 3 side chain; linkers in the order of their positions; H or OH if unused. Positions of bridges follow the written chain, without caps; N, C: chain ends. Non-standard residues stand in square brackets, D forms with d. Residues, ends and D or L forms follow the SMILES beside them. Groups on a side chain read outwards from the residue. *: point of attachment. Succinyl(O-RRR-αToc) = Cc1c(C)c2c(c(C)c1OC(=O)CCC(=O)*)CC[C@@](C)(CCC[C@H](C)CCC[C@H](C)CCCC(C)C)O2; δOrn(Nα-Octadecanedioyl) = O=C(O)CCCCCCCCCCCCCCCCC(=O)N[C@@H](CCCN*)C(=O)O; X6 = O=C(O)CCCCCCCCCCCCCCCCC(=O)N[C@@H](CCC(=O)NCCCOCCOCCOCCCN*)C(=O)O; Trp(1-CH2COOH) = N[C@@H](Cc1cn(CC(=O)O)c2ccccc12)C(=O)O; X21 = O=C([C@H](CC1=CC(CCCCCN[*:3])N=N1)N[*:1])[*:2]; X14 = O=C(O)CCCCCCCCCCNC(=O)CCC(=O)NCCCOCCOCCOCCCN*; X27 = CCCCCCCCCCCCCCCCNC(=O)CCC(=O)NCCCOCCOCCOCCCN*; C18 diacid = O=C(O)CCCCCCCCCCCCCCCCC(=O)*; Phe(4-F) = N[C@@H](Cc1ccc(F)cc1)C(=O)O; γGlu = O=C(O)[C@H](CCC(=O)[*:2])N[*:1]; d(cisHyp) = O=C(O)[C@H]1C[C@@H](O)CN1; PEG6 = NCCOCCOCCOCCOCCOCCOCCC(=O)O; Hyp = O=C(O)[C@@H]1C[C@@H](O)CN1; NMeNle = CCCC[C@H](NC)C(=O)O; Pip = O=C(O)[C@@H]1CCCCN1; NMeA = CN[C@@H](C)C(=O)O; Dab = NCC[C@H](N)C(=O)O; Dap = NC[C@H](N)C(=O)O

Target: T1, PD-L1 (Homo sapiens, UniProt Q9NZQ7)
T1 construct: hPDL1(19-239)-TVMV-His; made in house; host or cells: HEK293T
Test: PD-1/PD-L1 Homogenous Time-Resolved Fluorescence (HTRF) binding assay (PD-1-Ig/PD-L1-His)
Details: not given
Outline: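 HTRF competition in dPBS with 0.1% BSA and 0.05% Tween-20: 20 nM PD-1-Ig added after 15 min compound pre-incubation with 10 nM PD-L1-His, then another 15 min. Signal (665/620 nm) after 30 min with APC anti-His (20 nM) and Eu anti-Ig (1 nM).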

T1 sequence (Q9NZQ7 with tags, fused parts or gaps): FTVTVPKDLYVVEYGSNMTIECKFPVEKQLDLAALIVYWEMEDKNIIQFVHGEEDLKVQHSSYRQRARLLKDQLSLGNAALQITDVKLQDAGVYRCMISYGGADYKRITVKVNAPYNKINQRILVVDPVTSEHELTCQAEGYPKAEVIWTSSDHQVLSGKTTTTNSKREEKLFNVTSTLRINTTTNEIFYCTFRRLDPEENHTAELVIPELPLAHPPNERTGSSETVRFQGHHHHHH

SMILES	IC50
CCCC[C@H]1C(=O)N(C)[C@@H](CCCC)C(=O)N[C@@H](CCC(=O)O)C(=O)N[C@H](C(=O)NCC(=O)N[C@@H](Cc2cn(CCCCCNC(=O)CCC(=O)Oc3c(C)c(C)c4c(c3C)CC[C@@](C)(CCC[C@H](C)CCC[C@H](C)CCCC(C)C)O4)nn2)C(=O)N[C@@H](CC(=O)O)C(N)=O)CSCC(=O)N[C@@H](Cc2ccc(O)cc2)C(=O)N(C)[C@@H](C)C(=O)N[C@@H](CC(=O)O)C(=O)N2CCC[C@H]2C(=O)N[C@@H](Cc2c[nH]cn2)C(=O)N[C@@H](CCCCN)C(=O)N2C[C@H](O)C[C@H]2C(=O)N[C@@H](Cc2c[nH]c3ccccc23)C(=O)N[C@@H](CCCCN)C(=O)N[C@@H](Cc2c[nH]c3ccccc23)C(=O)N1C [Example 14056]	100 to 1600 nM
CCCC[C@H]1C(=O)N(C)[C@@H](CCCC)C(=O)N[C@@H](CCC(=O)O)C(=O)N[C@H](C(=O)NCC(=O)N[C@@H](CC2=CC(CCCCCNC(=O)CCC(=O)Oc3c(C)c(C)c4c(c3C)CC[C@@](C)(CCC[C@H](C)CCC[C@H](C)CCCC(C)C)O4)N=N2)C(=O)NCC(N)=O)CSCC(=O)N[C@@H](Cc2ccc(O)cc2)C(=O)N(C)[C@@H](C)C(=O)N[C@@H](CC(=O)O)C(=O)N2CCC[C@H]2C(=O)N[C@@H](Cc2c[nH]cn2)C(=O)N[C@@H](CCCCN)C(=O)N2C[C@H](O)C[C@H]2C(=O)N[C@@H](Cc2c[nH]c3ccccc23)C(=O)N[C@@H](CCCCN)C(=O)N[C@@H](Cc2c[nH]c3ccccc23)C(=O)N1C (stereo partly drawn) [Example 14051] ({CH2CO}-Y[NMeA]DPHK[Hyp]WKW[NMeNle][NMeNle]ECG[X21](Succinyl(O-RRR-αToc))G-NH2; thioether N-14)	100 to 1600 nM

Same assay, conditions: inhibition of PD-1-Ig binding to PD-L1-TVMV-His; value given as range class; read-out: HTRF IC50

SMILES	IC50
CCCCCCCCCCCCCCCCNC(=O)CCC(=O)NCCCOCCOCCOCCCNC(=O)CNC(=O)[C@@H]1CSCC(=O)N[C@@H](Cc2ccc(O)cc2)C(=O)N(C)[C@@H](C)C(=O)N[C@@H](CC(=O)O)C(=O)N2CCC[C@H]2C(=O)N[C@@H](Cc2cnc[nH]2)C(=O)N[C@@H](CC(C)C)C(=O)N2C[C@H](O)C[C@H]2C(=O)N[C@@H](Cc2c[nH]c3ccccc23)C(=O)N[C@@H](CO)C(=O)N[C@@H](Cc2c[nH]c3ccccc23)C(=O)N(C)[C@@H](CCCC)C(=O)N(C)[C@@H](CCCC)C(=O)N[C@@H](CCCNC(=N)N)C(=O)N1 [Example 11124] ({CH2CO}-Y[NMeA]DPHL[Hyp]WSW[NMeNle][NMeNle]RCG-X27; thioether N-14)	100 to 1600 nM
CCCC[C@H]1C(=O)N(C)[C@@H](CCCC)C(=O)N[C@@H](CC(C)C)C(=O)N[C@H](C(=O)NCCOCCOCCOCCOCCOCCOCCC(=O)O)CSCC(=O)N[C@@H](Cc2ccc(O)cc2)C(=O)N(C)[C@@H](C)C(=O)N[C@@H](CC(N)=O)C(=O)N2CCC[C@H]2C(=O)N[C@@H](CO)C(=O)N[C@@H](CCC(N)=O)C(=O)N2C[C@H](O)C[C@@H]2C(=O)N[C@@H](Cc2c[nH]c3ccccc23)C(=O)N[C@@H](CO)C(=O)N[C@@H](Cc2cn(CC(=O)O)c3ccccc23)C(=O)N1C [Example 11045] ({CH2CO}-Y[NMeA]NPSQ[d(cisHyp)]WS[Trp(1-CH2COOH)][NMeNle][NMeNle]LC[PEG6]-OH; thioether N-14)	10 to 99 nM

Continued, values first:

IC50	SMILES
10 to 99 nM	CCCC[C@H]1C(=O)N(C)[C@@H](CCCC)C(=O)N[C@@H](CC(C)C)C(=O)N[C@H](C(=O)NCCCOCCOCCOCCCNC(=O)CCC(=O)NCCCCCCCCCCC(=O)O)CSCC(=O)N[C@@H](Cc2ccc(O)cc2)C(=O)N(C)[C@@H](C)C(=O)N[C@@H](CC(N)=O)C(=O)N2CCC[C@H]2C(=O)N[C@@H](CN)C(=O)N[C@@H](CC(C)C)C(=O)N2C[C@H](O)C[C@@H]2C(=O)N[C@@H](Cc2c[nH]c3ccccc23)C(=O)N[C@@H](CCN)C(=O)N[C@@H](Cc2cn(CC(=O)O)c3ccccc23)C(=O)N1C [Example 11138] ({CH2CO}-Y[NMeA]NP[Dap]L[d(cisHyp)]W[Dab][Trp(1-CH2COOH)][NMeNle][NMeNle]LC-X14; thioether N-14)
100 to 1600 nM	CCCC[C@H]1C(=O)N(C)[C@@H](CCCC)C(=O)N[C@@H](CC(C)C)C(=O)N[C@H](C(=O)NCC(=O)N[C@@H](Cc2cn(CCOCCOCCOCCOCCOCCOCCOCCOCCOCCOCCOCCNC(=O)CC[C@H](NC(=O)CCCCCCCCCCCCCCCCC(=O)O)C(=O)O)nn2)C(=O)O)CSCC(=O)N[C@@H](Cc2ccc(O)cc2)C(=O)N2CCCC[C@H]2C(=O)N[C@@H](CC(N)=O)C(=O)N2CCC[C@H]2C(=O)N[C@@H](CN)C(=O)N[C@@H](CC(C)C)C(=O)N2C[C@H](O)C[C@H]2C(=O)N[C@@H](Cc2c[nH]c3ccccc23)C(=O)N[C@@H](CCN)C(=O)N[C@@H](Cc2cn(CC(=O)O)c3ccccc23)C(=O)N1C [Example 14104]
10 to 99 nM	CCCC[C@H]1C(=O)N(C)[C@@H](CCCC)C(=O)N[C@@H](CC(C)C)C(=O)N[C@H](C(=O)NCC(=O)N[C@@H](CCNC(=O)CC[C@H](NC(=O)CCCCCCCCCCCCCCCCC(=O)O)C(=O)O)C(=O)O)CSCC(=O)N[C@@H](Cc2ccc(O)cc2)C(=O)N2CCCC[C@H]2C(=O)N[C@@H](CC(N)=O)C(=O)N2CCC[C@H]2C(=O)N[C@@H](CN)C(=O)N[C@@H](CC(C)C)C(=O)N2C[C@H](O)C[C@H]2C(=O)N[C@@H](Cc2c[nH]c3ccccc23)C(=O)N[C@@H](CCN)C(=O)N[C@@H](Cc2cn(CC(=O)O)c3ccccc23)C(=O)N1C [Example 13149] ({CH2CO}-Y[Pip]NP[Dap]L[Hyp]W[Dab][Trp(1-CH2COOH)][NMeNle][NMeNle]LCG[Dab]([γGlu-C18 diacid])-OH; thioether N-14)
10 to 99 nM	CCCC[C@H]1C(=O)N(C)[C@@H](CCCC)C(=O)N[C@@H](CC(C)C)C(=O)N[C@H](C(=O)NCC(=O)N[C@@H](CCC(=O)NCCC[C@H](NC(=O)CCCCCCCCCCCCCCCCC(=O)O)C(=O)O)C(=O)O)CSCC(=O)N[C@@H](Cc2ccc(F)cc2)C(=O)N2CCCC[C@H]2C(=O)N[C@@H](CC(=O)O)C(=O)N2CCC[C@H]2C(=O)N[C@@H](CN)C(=O)N[C@@H](CC(C)C)C(=O)N2C[C@H](O)C[C@H]2C(=O)N[C@@H](Cc2c[nH]c3ccccc23)C(=O)N[C@@H](CCN)C(=O)N[C@@H](Cc2cn(CC(=O)O)c3ccccc23)C(=O)N1C [Example 13146] ({CH2CO}-[Phe(4-F)][Pip]DP[Dap]L[Hyp]W[Dab][Trp(1-CH2COOH)][NMeNle][NMeNle]LCGE(δOrn(Nα-Octadecanedioyl))-OH; thioether N-14)
10 to 99 nM	CCCC[C@H]1C(=O)N(C)[C@@H](CCCC)C(=O)N[C@@H](CC(C)C)C(=O)N[C@H](C(=O)NCC(=O)N[C@@H](CCC(=O)O)C(=O)NCCCOCCOCCOCCCNC(=O)CC[C@H](NC(=O)CCCCCCCCCCCCCCCCC(=O)O)C(=O)O)CSCC(=O)N[C@@H](Cc2ccc(F)cc2)C(=O)N2CCCC[C@H]2C(=O)N[C@@H](CC(=O)O)C(=O)N2CCC[C@H]2C(=O)N[C@@H](CN)C(=O)N[C@@H](CCC(=O)O)C(=O)N2C[C@H](O)C[C@H]2C(=O)N[C@@H](Cc2c[nH]c3ccccc23)C(=O)N[C@@H](CCN)C(=O)N[C@@H](Cc2cn(CC(=O)O)c3ccccc23)C(=O)N1C [Example 11265] ({CH2CO}-[Phe(4-F)][Pip]DP[Dap]E[Hyp]W[Dab][Trp(1-CH2COOH)][NMeNle][NMeNle]LCGE-X6; thioether N-14)
